Patent publication US9938279B2, “Method for treating disease or condition susceptible to amelioration by AMPK activators and compounds of formula which are useful to activate AMP-activated protein kinase (AMPK)” (ENERGENESIS BIOMEDICAL CO., LTD, priority 2013, dated 2018)

Tests used:
[1] = test system: AMPK; experiment: AMPK activation assay (western blot phospho-AMPK Thr172) in C2C12; format: cell-based, mouse; conditions: C2C12 cells, 30 min treatment
Summary of the method: (§1)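 Mouse C2C12, mouse 3T3-L1 and human Hep G2 cells in high-glucose DMEM/10% FBS were treated with compounds for 30 min, 24 h after plating. Lysates were western-blotted for phospho-AMPK (Thr172) and total AMPK, ECL-detected, and bands quantified by densitometry.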

[2] = test system: AMPK; experiment: AMPK activation assay (western blot phospho-AMPK Thr172) in 3T3-L1; format: cell-based, mouse; conditions: 3T3-L1 cells, 30 min treatment
Summary of the method: as §1

[3] = test system: AMPK; experiment: AMPK activation assay (western blot phospho-AMPK Thr172) in Hep G2; format: cell-based, human; conditions: Hep G2 cells, 30 min treatment
Summary of the method: as §1

[4] = test system: muscle cell C2C12; experiment: Glucose uptake in vitro (fluorescent glucose analog 2-NBDG); format: cell-based, mouse; conditions: 30 min treatment, mean±SEM of three experiments
Protocol: Effects of representative compounds on glucose uptake were analyzed in muscle cell C2C12 by using fluorescent glucose analog (2-NBDG, Molecular Probes). C2C12 were treated with selected novel AMPK activator for 30 min at 37° C. then exposed to 500 μM of fluorescent glucose analog. After 5 min incubation at room temperature, cells were washed three times with Kreb-Hepes buffered solution and fix in 70% alcohol. The fluorescence of glucose analog in cells was detected using a Fluorescence Microplate Reader System at 480-nm excitation and 530-nm emission wavelength.
Data are presented as the mean±SEM of three independent experiments.

SMILES	AMPK activation (% to control) C2C12 ([1]; 1 microM)	AMPK activation (% to control) C2C12 ([1]; 10 microM)	AMPK activation (% to control) C2C12 ([1]; 100 microM)	AMPK activation (% to control) C2C12 ([1]; 200 microM)	AMPK activation (% to control) 3T3-L1 ([2]; 1 microM)	AMPK activation (% to control) 3T3-L1 ([2]; 10 microM)	AMPK activation (% to control) 3T3-L1 ([2]; 100 microM)	AMPK activation (% to control) 3T3-L1 ([2]; 200 microM)	AMPK activation (% to control) Hep G2 ([3]; 1 microM)	AMPK activation (% to control) Hep G2 ([3]; 10 microM)	AMPK activation (% to control) Hep G2 ([3]; 100 microM)	AMPK activation (% to control) Hep G2 ([3]; 200 microM)	Glucose uptake (% to control) ([4]; C2C12, 1 microM)	Glucose uptake (% to control) ([4]; C2C12, 10 microM)	Glucose uptake (% to control) ([4]; C2C12, 100 microM)	Glucose uptake (% to control) ([4]; C2C12, 600 microM)	AMPK activation (% to control) C2C12 ([1]; 1200 microM)	AMPK activation (% to control) 3T3-L1 ([2]; 1200 microM)	AMPK activation (% to control) Hep G2 ([3]; 1200 microM)	Glucose uptake (% to control) ([4]; C2C12, 1200 microM)
Oc1nc(NC2CCCCC2)nc2nc[nH]c12 [2-cyclohexylamino-6-hydroxypurine]	108 % to control	118 % to control	209 % to control	321 % to control	118 % to control	172 % to control	283 % to control	375 % to control	111 % to control	137 % to control	248 % to control	351 % to control	108 ± 2.1 % to control	195 ± 11.9 % to control	251 ± 16.2 % to control	311 ± 10.7 % to control	–	–	–	–
Cc1ccc(CNc2ncnc3nc[nH]c23)cc1 [6-(4-methylbenzylamino)purine]	112 % to control	158 % to control	270 % to control	358 % to control	110 % to control	163 % to control	259 % to control	347 % to control	106 % to control	121 % to control	245 % to control	348 % to control	114 ± 9.2 % to control	205 ± 14.6 % to control	281 ± 11.5 % to control	309 ± 9.1 % to control	–	–	–	–
Oc1ncnc2nc[nH]c12 [6-hydroxypurine]	120 % to control	148 % to control	233 % to control	341 % to control	118 % to control	155 % to control	198 % to control	325 % to control	114 % to control	146 % to control	165 % to control	330 % to control	109 ± 2.2 % to control	242 ± 23.7 % to control	289 ± 21.4 % to control	318 ± 21.2 % to control	–	–	–	–
NC(=O)c1ncn([C@@H]2O[C@H](CO)[C@@H](O)[C@H]2O)c1N [AICAR, 5-amino-1-β-D-ribofuranosyl-imidazole-4-carboxamide, reference compound]	–	–	–	–	–	–	–	–	–	–	–	–	–	–	–	–	335 % to control	340 % to control	319 % to control	264 ± 19.2 % to control
Nc1nc2nc[nH]c2c(=O)[nH]1 [Guanine]	105 % to control	117 % to control	241 % to control	304 % to control	107 % to control	121 % to control	208 % to control	312 % to control	119 % to control	144 % to control	199 % to control	335 % to control	–	–	–	–	–	–	–	–
O=c1[nH]cnc2nc[nH]c12 [Hypoxanthine]	108 % to control	121 % to control	238 % to control	309 % to control	108 % to control	128 % to control	231 % to control	335 % to control	105 % to control	124 % to control	225 % to control	341 % to control	–	–	–	–	–	–	–	–
Cc1c[nH]c(=O)[nH]c1=O [Thymine, thymine]	117 % to control	147 % to control	266 % to control	354 % to control	109 % to control	129 % to control	235 % to control	318 % to control	110 % to control	113 % to control	218 % to control	303 % to control	110 ± 3.2 % to control	167 ± 15.1 % to control	215 ± 18.2 % to control	283 ± 22.3 % to control	–	–	–	–
O=c1cc[nH]c(=O)[nH]1 [Uracil]	105 % to control	109 % to control	264 % to control	358 % to control	114 % to control	123 % to control	248 % to control	372 % to control	118 % to control	144 % to control	237 % to control	359 % to control	–	–	–	–	–	–	–	–
